{
  "source": "patent US8815878B1",
  "about": "“Spiro hemiaminals for treating viral diseases” (NovaDrug, LLC, priority 2010, dated 2014)",
  "system": "Huh7-1 cells",
  "test": "HCV Induced Cytotoxicity Test (Promega CytoTox 96 LDH release)",
  "type": "cell-based, human",
  "conditions": "5 day HCV-infected Huh7-1 cultures",
  "protocol": "Initially, 6×10^3 Huh7-1 cells are incubated overnight in each well of collagen-coated BioCoat 96-well plates (BD Biosciences, Bedford, Mass.) in 0.2 ml 10% medium composed of Dulbecco's modified Eagle's medium supplemented with 10% fetal bovine serum. Subsequently, at 2 day intervals, the cultures are replenished with fresh 0.2 ml 10% medium. After the cultures become confluent, they continue to be replenished at 2 day intervals with fresh 0.2 ml 10% medium that also includes 1% dimethyl sulfoxide (DMSO). After 20 days of these replenishments, the Huh7-1 cultures are incubated with fresh 1% medium (same as 10% medium except that the serum level is 1%) containing HCV at a multiplicity of infection (MOI) of 0.05 focus forming units (ffu)/cell. The HCV (JFH-1 wt Huh7) stock titer is 1.5×10^5 ffu/ml. The next day (day 1 post-infection) and 2 days later (day 3 post-infection) the media are replenished with fresh 1% medium containing the test compounds dissolved in DMSO. On the 5th day of treatment with the compounds, cell lysates are collected for RNA isolation and Real Time-quantitative Reverse Transcription Polymerase Chain Reaction (RT-qPCR) and culture media are collected for cytotoxicity analysis.\nHCV Induced Cytotoxicity Test. To determine whether the compounds described herein are cytotoxic at the tested doses used, the Promega CytoTox 96 Non-Radioactive Cytotoxicity Assay kit (Promega, Madison, Wis.) is used. This kit measures lactate dehydrogenase (LDH) levels in the culture medium, which is released from cells due to plasma membrane integrity loss or necrosis. For this test, 50 uL samples of culture medium are collected from the same 5 day cultures used to examine the RNA levels shown previously.",
  "key": {"[1]": {"conditions": "concentration ranges of 2.5 to 20 μM"}},
  "data": [
    {"smiles": "Cc1ccc2occ(CN3C[C@H]4CC[C@]5(NC(=O)c6ccccc6N5)[C@H]4C3)c(=O)c2c1", "note": "[Example 3]", "values": [
      {"measurement": "toxicity in the assay (LDH levels in the culture medium)", "setting": "at 25 μM", "result": "limited toxicity"},
      {"measurement": "toxicity in the assay (LDH levels in the culture medium)", "setting": "[1]", "result": "little to no toxicity"}
    ]},
    {"smiles": "O=C1N[C@]2(CC[C@@H]3CN(Cc4cnc(N5CCOCC5)nc4)C[C@@H]32)Nc2ccccc21", "note": "[Example 4]", "values": [
      {"measurement": "toxicity in the assay (LDH levels in the culture medium)", "setting": "[1]", "result": "little to no toxicity"}
    ]},
    {"smiles": "O=C1N[C@]2(CC[C@@H]3CN(Cc4cc5c(cc4Cl)OCO5)C[C@@H]32)Nc2ccccc21", "note": "[Example 6]", "values": [
      {"measurement": "toxicity in the assay (LDH levels in the culture medium)", "setting": "at 25 μM", "result": "limited toxicity"},
      {"measurement": "toxicity in the assay (LDH levels in the culture medium)", "setting": "[1]", "result": "little to no toxicity"}
    ]}
  ]
}
